According to patent US4962109A, “Insecticidally and acaricidally active pyrimidine esters and intermediates therefor” (Imperial Chemical Industries PLC, priority 1985, dated 1990):
Where two headings read alike, the source gives them in different places.

Experiments:
Type in all cases: in vivo
[1] = system: Nephotettix cincticeps (green leaf hopper - nymphs); assay: Contact test on green leaf hopper nymphs (NC), Rice plant, mortality; details: 500 ppm, contact, read-out: NC grading of mortality
In short: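 Product dissolved in acetone, diluted in water with 0.01% wetting agent to 500, 250 or 100 ppm; nymphs and/or host rice plants treated. Mortality or knockdown assessed 1–3 days later, graded A (80-100%), B (50-79%), C (<50%).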

[2] = system: Tetranychus urticae (spider mites - ova); assay: Contact test on spider mites - ova (TUe), French bean leaf, mortality; details: 144 h, 500 ppm, contact, 6 days, read-out: TUe grading of mortality
In short: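 Graded read-out: A 80-100%, B 50-79%, C below 50% mortality or knockdown, assessed usually 1-3 days post-treatment. Liquid preparations at 500, 250 or 100 ppm by weight, from acetone solution diluted in water with 0.01% wetting agent, applied to pests and/or their host plant or food medium.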

[3] = system: Blattella germanica (cockroach nymphs); assay: Residual test on cockroach nymphs (BG/R), Plastic pot, mortality; details: 72 h, 3 days, read-out: BG/R grading of mortality
Protocol: The activity of the Product was determined using a variety of insect pests. The Product was used in the form of liquid preparations containing 500, 250 or 100 parts per million (ppm) by weight of the Product. The preparations were made by dissolving the Product in acetone and diluting the solutions with water containing 0.01% by weight of a wetting agent sold under the trade name "LISSAPOL" NX until the liquid preparations contained the required concentration of the Product. "Lissapol" is a Registered Trade Mark.
The test procedure adopted with regard to each pest was basically the same and comprised supporting a number of the pests on a medium which was usually a host plant or a foodstuff on which the pests feed, and treating either or both the pests and the medium with the preparations. The mortality of the pests was then assessed at periods usually varying from one to three days after the treatment.
The results of the tests are given in Table III for each of the Products, at the rate in parts per million given in the second column as a grading of mortality designated as A, B or C wherein A indicates 80-100% mortality or knockdown, B indicates 50-79% mortality or knockdown and C indicates less than 50% mortality or knockdown.
BG/R Blattella germanica

[4] = system: Heliothis virescens (tobacco budworm - larvae); assay: Residual test on tobacco budworm larvae (HV), Cotton leaf, mortality; details: 48 h, read-out: HV grading of mortality
In short: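 Product in acetone diluted with water containing 0.01% Lissapol NX, at 500, 250 or 100 ppm; pests and/or host medium (here cotton leaf) treated. Mortality scored one to three days later, graded A (80-100%), B (50-79%), C (<50%).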

[5] = system: Diabrotica balteata (rootworm larvae); assay: Residual test on rootworm larvae (DB), Filter paper/maize seed, mortality; details: 48 h, 500 ppm, residual, read-out: DB grading of mortality
In short: (§1)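 Product dissolved in acetone, diluted in water with 0.01% wetting agent to 500, 250 or 100 ppm; pests and/or host medium (plant or foodstuff) treated. Mortality or knockdown assessed 1–3 days later, graded A (80–100%), B (50–79%) or C (<50%).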

[6] = system: Musca domestica (houseflies - adults); assay: Contact test on houseflies - adults (MD), Cotton wool/sugar, mortality; details: 500 ppm, contact, read-out: MD grading of mortality
In short: as §1

[7] = system: Musca domestica (houseflies - adults); assay: Knockdown test on houseflies - adults (MD/KD), Cotton wool/sugar; details: 500 ppm, 4 hours, read-out: MD/KD grading of knockdown
In short: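 Adult houseflies exposed to the compound at 500, 250 or 100 ppm in acetone/water with 0.01% wetting agent, on a cotton wool/sugar medium. Knockdown and mortality assessed, graded A (80-100%), B (50-79%) or C (<50%).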

[8] = system: Spodoptera exigua (lesser army worm - larvae); assay: Residual test on lesser army worm larvae (SP), Cotton leaf, mortality; details: 48 h, 500 ppm, residual, read-out: SP grading of mortality
In short: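 Product dissolved in acetone and diluted in water with 0.01% wetting agent to 500, 250 or 100 ppm; larvae and/or cotton leaf host treated. Mortality or knockdown scored one to three days later and graded A (80-100%), B (50-79%) or C (<50%).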

Myzus persicae (aphids) = assay: Contact test on aphids (MP), Chinese Cabbage leaf, mortality; details: 72 h, 500 ppm, contact, 3 days, read-out: MP grading of mortality
In short: as §1

[9] = system: Tetranychus urticae (spider mites - adult); assay: Contact test on spider mites - adult (TUa), French bean leaf, mortality; details: 72 h, 500 ppm, contact, 3 days, read-out: TUa grading of mortality
In short: as §1

[10] = system: Blattella germanica (cockroach nymphs); assay: Contact test on cockroach nymphs (BG/C), Plastic pot, mortality; details: 48 h, 500 ppm, contact, 2 days, read-out: BG/C grading of mortality
In short: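 Cockroach nymphs and/or their medium were treated with aqueous preparations at 500, 250 or 100 ppm (acetone solution diluted in water with 0.01% Lissapol NX wetting agent). Mortality or knockdown was assessed typically 1–3 days later and graded A (80–100%), B (50–79%) or C (<50%).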

[11] = 24 h, ** test duration of 1 day

CC(C)(C)c1ncc(C(C(=O)OCc2ccc(F)c(Oc3ccccc3)c2)C2CC2)cn1 (racemic) [Compound 125, 4-fluoro-3-phenoxybenzyl (RS)-2-[2-(1,1-dimethylethyl)pyrimidin-5-yl]-2cyclopropylacetate]
mortality at 500 ppm ([1]; 72 h, * test duration of 3 days): 80 to 100% | mortality at 500 ppm [2]: < 50% | mortality at 500 ppm [3]: < 50% | mortality at 500 ppm [4]: 80 to 100% | mortality at 500 ppm ([5]; * test duration of 3 days): 80 to 100% | mortality at 500 ppm [6, 11]: 50 to 79% | pest or weed control at 500 ppm [7]: 50 to 79% | mortality at 500 ppm ([8]; * test duration of 3 days): 80 to 100% | mortality at 500 ppm (Myzus persicae (aphids)): 80 to 100% | mortality at 500 ppm [9]: 80 to 100%

COCc1c(F)c(F)c(COC(=O)C(c2cnc(C(C)(C)C)nc2)C(C)(C)C)c(OC)c1F (racemic) [Compound 16, 2,3,5-trifluoro-6-methoxy-4-(methoxymethyl)benzyl (RS)-2-[2-(1,1-dimethylethyl)pyrimidin-5-yl]-3,3-dimethylbutanoate]
mortality at 500 ppm [2]: 80 to 100% | mortality at 500 ppm [3]: 50 to 79% | mortality at 500 ppm [4]: 80 to 100% | mortality at 500 ppm ([5]; * test duration of 3 days): < 50% | mortality at 500 ppm [6, 11]: 80 to 100% | pest or weed control at 500 ppm [7]: 80 to 100% | mortality at 500 ppm ([8]; * test duration of 3 days): 80 to 100% | mortality at 500 ppm (Myzus persicae (aphids)): 80 to 100% | mortality at 500 ppm [9]: < 50%

CCOCc1c(F)c(F)c(COC(=O)C(c2cnc(C(C)(C)C)nc2)C(C)(C)C)c(OCC)c1F (racemic) [Compound 188, 2,3,5-trifluoro-6-ethoxy-4-(ethoxymethyl)benzyl (RS)-2-[2-(1,1-dimethylethyl)pyrimidin-5-yl]-3,3-dimethylbutanoate]
mortality at 500 ppm ([1]; 48 h, 2 days): 50 to 79% | mortality at 500 ppm [10]: < 50% | mortality at 500 ppm [2]: < 50% | mortality at 500 ppm [4]: 50 to 79% | mortality at 500 ppm ([5]; 2 days): < 50% | mortality at 500 ppm ([6]; 72 h, 3 days): < 50% | pest or weed control at 500 ppm [7]: < 50% | mortality at 500 ppm ([8]; 2 days): 80 to 100% | mortality at 500 ppm (Myzus persicae (aphids)): 80 to 100% | mortality at 500 ppm [9]: 80 to 100%

CC(C)(C)C(C(=O)OCc1ccc(F)c(Oc2ccccc2)c1)c1cnc(-c2ccccc2Cl)nc1 (racemic) [Compound 209, 4-fluoro-3-phenoxybenzyl (RS)-2-[2-(2-chlorophenyl)pyrimidin-5-yl]-3,3-dimethylbutanoate]
mortality at 500 ppm ([1]; 48 h, 2 days): < 50% | mortality at 500 ppm [10]: < 50% | mortality at 500 ppm [2]: < 50% | mortality at 500 ppm [4]: 80 to 100% | mortality at 500 ppm ([5]; 2 days): < 50% | mortality at 500 ppm ([6]; 72 h, 3 days): < 50% | pest or weed control at 500 ppm [7]: < 50% | mortality at 500 ppm ([8]; 2 days): 50 to 79% | mortality at 500 ppm (Myzus persicae (aphids)): 50 to 79% | mortality at 500 ppm [9]: 80 to 100%

CCCc1c(F)c(F)c(COC(=O)C(c2cnc(C(C)(C)C)nc2)C(C)(C)C)c(F)c1F (racemic) [Compound 168, 4-(n-propyl)-2,3,5,6-tetrafluorobenzyl (RS)-2-[2-(1,1-dimethylethyl)pyrimidin-5-yl]-3,3-dimethylbutanoate]
mortality at 500 ppm ([1]; 48 h, 2 days): 80 to 100% | mortality at 500 ppm [10]: < 50% | mortality at 500 ppm [2]: 80 to 100% | mortality at 500 ppm [4]: 50 to 79% | mortality at 500 ppm ([5]; 2 days): < 50% | mortality at 500 ppm ([6]; 72 h, 3 days): < 50% | pest or weed control at 500 ppm [7]: < 50% | mortality at 500 ppm ([8]; 2 days): 50 to 79% | mortality at 500 ppm (Myzus persicae (aphids)): 80 to 100% | mortality at 500 ppm [9]: 80 to 100%

COCc1c(F)c(F)c(COC(=O)C(c2cnc(C(C)C)nc2)C(C)(C)C)c(F)c1F (racemic) [Compound 131, 2,3,5,6-tetrafluoro-4-(methoxymethyl)benzyl (RS)-2-[2-(1-methylethyl)-pyrimidin-5-yl]-3,3dimethylbutanoate]
mortality at 500 ppm ([1]; 48 h, 2 days): 80 to 100% | mortality at 500 ppm [10]: < 50% | mortality at 500 ppm [2]: 80 to 100% | mortality at 500 ppm [4]: < 50% | mortality at 500 ppm ([5]; 2 days): 80 to 100% | mortality at 500 ppm ([6]; 72 h, 3 days): < 50% | pest or weed control at 500 ppm [7]: 80 to 100% | mortality at 500 ppm ([8]; 2 days): 80 to 100% | mortality at 500 ppm (Myzus persicae (aphids)): 80 to 100% | mortality at 500 ppm [9]: 80 to 100%
